Experimental data from a compilation of properties of binary mixtures (doi:10.1007/s10953-011-9788-x).

Assay: xn = mol fraction of the nth substance listed
Conditions: 101 kPa

CCCC[n+]1ccn(C)c1.N[C@@H](CCC(=O)O)C(=O)[O-] + CO
viscosity [mPa·s]
Conditions	x2 = 0.1087	x2 = 0.2002	x2 = 0.2995	x2 = 0.4003	x2 = 0.4998	x2 = 0.6002	x2 = 0.7	x2 = 0.8001	x2 = 0.9
298.15 K	59.8	–	–	24.6	16.4	9.69	–	2.31	–
303.15 K	49.9	39.6	30.3	22.2	15.3	–	5.48	2.82	1.48
308.15 K	39.1	31.2	24.1	18.1	12.9	–	5.2	–	1.33
313.15 K	31.6	–	20	15	10.8	7.3	–	2.54	1.24
